Results from the supplement of paper PMC10307832.

Columns and labels:
Assay in all cases: relative viability (nuclei count vs DMSO), 5 days (fraction); higher = more cells survive
[1] = compound: C1=CC(=CC=C1C2=CC(=C(S2)NC(=O)N)C(=O)N)F [TPCA-1] + CC1(C)CCC(c2ccc(Cl)cc2)=C(CN2CCN(c3ccc(C(=O)NS(=O)(=O)c4ccc(N[C@H](CCN5CCOCC5)CSc5ccccc5)c(S(=O)(=O)C(F)(F)F)c4)cc3)CC2)C1 [Navitoclax] (partner 0.5 µM)
In short: (§1)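 One day after seeding in 1536-well plates, lung cancer cell lines were dosed by pin tool. Dosing was either single-drug or a fixed anchor-drug dose plus five library-drug doses (not always all listed) in √10 steps. After 5 days, nuclei were stained in one fix-and-stain step and counted on 4× images, and relative viability is the nuclei count of treated wells over that of vehicle wells, given as the median of duplicate plates.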

[2] = compound: C1=CC(=CC=C1C2=CC(=C(S2)NC(=O)N)C(=O)N)F [TPCA-1] + Nc1nc2[nH]cc(CCc3ccc(C(=O)N[C@@H](CCC(=O)O)C(=O)O)cc3)c2c(=O)[nH]1 [Pemetrexed] (partner 0.2 µM)
In short: as §1

[3] = compound: C1=CC(=CC=C1C2=CC(=C(S2)NC(=O)N)C(=O)N)F [TPCA-1] + CC(=O)c1c(C)c2cnc(Nc3ccc(N4CCNCC4)cn3)nc2n(C2CCCC2)c1=O [Palbociclib] (partner 0.5 µM)
In short: as §1

[4] = compound: C1/C(=C\C2=CC=CS2)/C(=O)/C(=C/C3=CC=CS3)/C1 + Cc1nc(Nc2ncc(C(=O)Nc3c(C)cccc3Cl)s2)cc(N2CCN(CCO)CC2)n1 [Dasatinib] (partner 0.075 µM)
In short: as §1

Cell Line	relative viability ([1]; first compound 0.04 µM)	relative viability ([1]; first compound 0.1265 µM)	relative viability ([1]; first compound 0.4 µM)	relative viability ([1]; first compound 1.265 µM)	relative viability ([1]; first compound 4 µM)	relative viability ([2]; first compound 0.04 µM)	relative viability ([2]; first compound 0.1265 µM)	relative viability ([2]; first compound 0.4 µM)	relative viability ([2]; first compound 1.265 µM)	relative viability ([2]; first compound 4 µM)	relative viability ([3]; first compound 0.04 µM)	relative viability ([3]; first compound 0.1265 µM)	relative viability ([3]; first compound 0.4 µM)	relative viability ([3]; first compound 1.265 µM)	relative viability ([3]; first compound 4 µM)	relative viability ([4]; first compound 0.2 µM)	relative viability ([4]; first compound 0.6325 µM)	relative viability ([4]; first compound 2 µM)	relative viability ([4]; first compound 6.325 µM)	relative viability ([4]; first compound 20 µM)
201T	1.2	1.17	1.19	1.2	1.25	0.363	0.298	0.337	0.282	0.304	0.376	0.362	0.385	0.386	0.363	0.633	0.523	0.529	0.493	0.612
A549	1.29	1.2	1.17	1.29	0.777															
A-427	0.945	0.898	0.997	0.899	0.93	1.01	0.918	1.11	1.05	0.388	0.555	0.507	0.545	0.561	0.553	0.841	0.721	0.644	0.722	0.708
ABC-1											0.967	0.589	0.584	0.612	0.754	0.648	0.576	0.626	0.7	0.701
BEN	0.0874	0.0533	0.0644	0.0802	0.0674	0.701	0.661	0.739	0.99	0.513	0.474	0.468	0.531	0.577	0.422	0.325	0.38	0.316	0.35	0.298
CAL-12T	1.1	1.15	1.17	1.16	1.11	1.12	0.968	1.17	1.09	0.828	0.585	0.507	0.445	0.416	0.172	0.513	0.504	0.566	0.341	0.48
Calu-6	0.893	0.795	0.888	0.726	0.394															
EBC-1	0.355	0.397	0.564	0.351	0.293															
HCC-44	0.973	0.983	1.04	0.927	0.915	0.617	0.657	0.575	0.627	0.595	0.987	0.902	0.995	0.995	1.03					
IA-LM	0.855	0.595	0.72	0.617	0.678															
LCLC-103H						0.522	0.426	0.464	0.398	0.432	0.52	0.519	0.465	0.473	0.494	0.402	0.466	0.572	0.481	0.444
NCI-H358						0.187	0.167	0.162	0.156	0.167	0.152	0.157	0.137	0.109	0.108	0.155	0.178	0.18		0.164
NCI-H522						1.21	0.765	1.15	1.14	0.975	1.15	0.978	1.06	1.04	0.953	0.901	0.854	1.01	0.834	0.919
NCI-H596	0.88	0.932	1.07	0.996	1.07	0.53	0.516	0.532	0.509	0.412						0.577	0.677	0.598	0.628	0.586
NCI-H650						0.952	0.916	0.994	0.631	0.809	0.347	0.323	0.343	0.266	0.279	0.462	0.416	0.569	0.446	0.444
NCI-H661						0.931	0.906	0.931	0.851	0.97	0.413	0.397	0.411	0.399	0.378	0.998	0.801	0.811	0.833	0.85
NCI-H727	0.409	0.431	0.512	0.413	0.404						0.761	0.47	0.594	0.62	0.593	0.333	0.49	0.447	0.449	0.387
NCI-H1299	1.08	1.02	1.02	1.04	1.07															
NCI-H1563						0.799	0.508	0.788	0.642	0.599						0.452	0.462	0.504	0.453	0.465
NCI-H1623																0.53	0.561	0.52	0.52	0.53
NCI-H1648						0.824	0.702	0.769	0.76	0.809	0.254	0.245	0.262	0.254	0.199					
NCI-H1703	1.18	0.955	1.12	0.774	0.807															
NCI-H2342						0.821	0.709	0.778	0.609	0.584	0.461	0.546	0.535	0.534	0.547	0.314	0.347	0.352	0.306	0.326
SW 900								0.492	0.495	0.468			0.676	0.566	0.537	0.64	0.773	0.769	0.574	0.671
